Literature values in patent publication US10561630B2, “Hydroxycitric acid compounds and capsule liquid delivery” (GLYKON TECHNOLOGIES GROUP, LLC, priority 2016, dated 2020).

Experiments:
[1] = 2-week period
[2] = single large oral dose or two divided oral doses; min. 2.63 mmoles/kg once per day or 0.33 mmoles/kg twice per day; high-sugar diet

## O=C(O)CC(O)(C(=O)O)C(O)C(=O)O (single isomer, unassigned; (-)) [HCA, (−)-hydroxycitric acid]
[1]; 900 mg HCA, dissolved in 100 ml tomato juice
  food intake decreased: 15-30%
[1]
  weight loss: no significant weight loss
[2]
  reduction in food consumption: ≥ 10%
